Results: patent US4568687A, “N-[2-4-(1H-Imidazol-1-yl)alkyl]-arylamides and pharmaceutical compositions” (American Cyanamid Company, priority 1984, dated 1986)
Structures can show the parent of a compound that is named as a salt.

Legend:
[1] = target: T1, thromboxane synthetase (Rattus norvegicus, UniProt P49430); assay: Inhibition of thromboxane (TXB2) formation in washed rat platelets, TXB2 by direct radioimmunoassay; type: cell-based, Okamoto-Aoki spontaneously hypertensive rats (SHR); conditions: 10 min; Dose 10^-4 (unit inferred); SHR platelet suspension, 10 minutes at 37° C.
T1 construct: The platelets were isolated by centrifuging the PRP for 10 minutes; endogenous in cells; host or cells: washed platelets from arterial blood of Okamoto-Aoki spontaneously hypertensive rats (rats from Taconic Farms)
T1 sequence (P49430 1-533): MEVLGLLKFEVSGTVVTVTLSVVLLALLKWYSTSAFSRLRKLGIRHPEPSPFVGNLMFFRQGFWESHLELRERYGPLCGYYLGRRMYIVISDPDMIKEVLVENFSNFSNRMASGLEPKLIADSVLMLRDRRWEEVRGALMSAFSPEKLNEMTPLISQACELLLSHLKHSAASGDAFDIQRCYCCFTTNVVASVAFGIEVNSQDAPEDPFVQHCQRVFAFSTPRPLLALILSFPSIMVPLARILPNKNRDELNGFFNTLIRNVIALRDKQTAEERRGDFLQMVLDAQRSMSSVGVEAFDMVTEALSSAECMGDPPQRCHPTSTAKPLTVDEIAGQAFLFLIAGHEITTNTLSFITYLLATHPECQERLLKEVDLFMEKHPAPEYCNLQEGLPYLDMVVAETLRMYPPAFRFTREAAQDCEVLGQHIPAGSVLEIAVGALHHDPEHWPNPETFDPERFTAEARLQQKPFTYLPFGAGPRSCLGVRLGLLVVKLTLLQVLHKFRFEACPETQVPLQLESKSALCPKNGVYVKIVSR
Protocol: Under urethan anesthesia, […] of arterial blood was collected in one ml. of 3.2% sodium citrate in a polystyrene tube from Okamoto-Aoki spontaneously hypertensive rats (SHR) (Taconic Farms, Germantown, NY) between 19 and 24 weeks in age. The blood was diluted with 3 ml. cold saline and centrifuged at room temperature for 15 minutes at 460×g. The platelet rich plasma (PRP) was separated. The platelets were isolated by centrifuging the PRP for 10 minutes at 1060×g and were washed in 4 ml. cold oxygenated Krebs phosphate buffer, pH 7.4. The chilled patelets recovered from centrifuging at 800×g for 10 minutes were resuspended in oxygenated Krebs phosphate buffer and diluted to contain 4.5-6.0×10^4 platelets/μl.
The inhibition of thromboxane (TX) formation was studied by determining the […] of thromboxane B2 (TXB2), the stable hydrolysis product of TXA2. Assay samples, prepared on ice, contained 200 μl platelet suspension, 50 μl saline, and 50 μl vehicle or drug under study (OKY-1581, UK-37248-01, 1-benzylimidazole, or indomethacin). The samples were incubated for 10 minutes at 37° C. in a metabolic shaker. The reaction was terminated by immersing the tubes in an ice bath and adding 50 μl of 0.5M citric acid. The samples were centrifuged for 10 minutes in a refrigerated centrifuge and the supernatants thus obtained were decanted and stored at -20° C. The TXB2 content for each sample was determined by a direct radioimmunoassay (RIA) utilizing a TXB2 specific RIA kit purchased from New England Nuclear, Boston, MA and expressed as pg TXB2 formed minute^-1 sample^-1, from which the percent inhibition of TXB2 formation was calculated.

[2] = tested on: spontaneously hypertensive rats of the Okamoto strain; assay: Hypotensive activity: mean arterial blood pressure (MABP) in spontaneously hypertensive rats, method of Chan and Poorvin; type: in vivo; conditions: gavage, 100 mg/kg or less, two doses 24 hours apart, sodium chloride loading; 28 hours after initial dose; average of 1-4 rats; initial average 160±1.5 mm; active if ≤116 (1 rat), ≤122 (2 rats), ≤128 (3 rats)
Protocol: The novel compounds of the present invention are also active hypotensive agents and were tested for hypotensive activity by the method of P. S. Chan and D. Poorvin, Clinical and Experimental Hypertension, 1 (6), 817-830 (1979). Male, 16 week old, spontaneously hypertensive rats of the Okamoto strain, from Taconic Farms, Germantown, N.Y. having an average mean arterial blood pressure of 160±1.5 mm of mercury are used in the test. […] A rat is dosed by gavage with a test compound, suspended in 2% pre-boiled starch at a concentration of 50 mg/ml, at a dose of 100 mg/kg of body weight or less, with 0.9% sodium chloride loading at a dose of 25 ml/kg of body weight. A second identical dose of the test compound, without sodium chloride loading is given 24 hours later. At 28 hours after the initial dose, the mean arterial blood pressure (MABP) is measured by the method of Chan and Poorvin vide supra. The procedure is repeated in a second and third rat when necessary. Based on the data obtained and using the three-stage "sequential probability ratio test" statistical method, the criteria for activity or retest are as follows:
If the blood pressure in the first rat is ≤116 mm mercury the compound is considered active. If the blood pressure is between […], a second rat is used. If the average blood pressure of the first and second rats is ≤122 mm the compound is considered active. If the average blood pressure is between 123 and 137 mm, a third rat is used. If the average blood pressure of the three rats is ≤128 mm the compound is considered active. The results of this test on representative compounds of the present invention appear in Table II below.

Compound | inhibition at 100 µM [1] [%] | MABP/mm Hg [2] [mm Hg]
O=C(NCCCn1ccnc1)c1ccccc1-c1ccccc1 [2-phenyl-N--[3-(1H--imidazol-1-yl)propyl]benzamide] | 95 | 124
Cc1cn(CCCNC(=O)c2ccc(C(F)(F)F)cc2)cn1 [4-trifluoromethyl-N--[3-(4-methyl-1H--imidazol-1-yl)propyl]benzamide] | 92 | 114
Cc1cn(CCCNC(=O)c2cccc(Cl)c2)cn1 [3-chloro-N--[3-(4-methyl-1H--imidazol-1-yl)propyl]benzamide] | 84 | 122
C=CCNc1ccc(Cl)cc1C(=O)NCCCn1ccnc1 [2-Allylamino-5-chloro-N--[3-(1H--imidazol-1-yl)propyl]benzamide] | 95 | 124
O=C(NCCCn1ccnc1)c1cccc(Cl)c1 [3-Chloro-N-[3-(1H-imidazol-1-yl)propyl]benzamide] | 75.4 | 124
CC(CCNC(=O)c1ccc(Cl)c(Cl)c1)n1ccnc1 (stereo not shown) [3,4-dichloro-N--[3-(1H--imidazol-1-yl)butyl]benzamide] | 86 | 123
O=C(NCCCn1ccnc1)c1ccc(Br)cc1 [4-bromo-N--[3-(1H--imidazol-1-yl)propyl]benzamide] | 85 | 120
O=C(NCCCn1cnc(-c2ccccc2)c1)c1ccc(Cl)cc1 [4-Chloro-N-[3-(4-phenyl-1H-imidazol-1-yl)propyl]-benzamide] | 69 | 125
Cc1cn(CCCNC(=O)c2ccc(Br)cc2)cn1 [4-bromo-N--[3-(4-methyl-1H--imidazol-1-yl)propyl]benzamide] | 80 | 122
O=C1c2ccccc2C(=O)N1CCCCn1ccnc1 [2-[4-(1H-Imidazol-1-yl)butyl]-1H-isoindole-1,3(2H)-dione] | 99 | 120
Cc1cn(CCCNC(=O)c2ccc(Cl)c(Cl)c2)cn1 [3,4-dichloro-N--[3-(4-methyl-1H--imidazol-1-yl)propyl]benzamide] | 90 | 116
O=C(NCCCn1ccnc1-c1ccccc1)c1ccc(Br)cc1 [4-bromo-N--[3-(2-phenyl-1H--imidazol-1-yl)propyl]benzamide, fumarate] | – | 115
O=C(NCCCn1ccnc1)c1ccc(Cl)cc1 [4-chloro-N--[3-(1H--imidazol-1-yl)propyl]benzamide] | 95 | 126
Cc1cn(CCCNC(=O)c2ccc(Cl)cc2)cn1 [4-chloro-N--[3-(4-methyl-1H--imidazol-1-yl)propyl]benzamide] | 93 | 112
O=C(NCCCn1ccnc1)c1cccc2ccccc12 [N--[3-(1H--imidazol-1-yl)propyl]-1-naphthalenecarboxamide] | 75 | 124
O=C(NCCCCn1ccnc1)c1ccc(C(F)(F)F)cc1 [4-trifluoromethyl-N--[4-(1H--imidazol-1-yl)butyl]benzamide fumarate] | 97 | 123
Cc1ccc(CC(=O)NCCCn2ccnc2)cc1 [N--[3-(1H--imidazol-1-yl)propyl]-4-methylbenzeneacetamide, hemifumarate] | – | 109
Cc1nccn1CCCNC(=O)c1ccc(Cl)cc1 [4-chloro-N--[3-(2-methyl-1H--imidazol-1-yl)propyl]benzamide] | – | 121
Nc1ccc(Cl)cc1C(=O)NCCCn1ccnc1 [2-amino-5-chloro-N--[3-(1H--imidazol-1-yl)propyl]benzamide] | 96 | 113
Cc1cc(Cl)cc(C(=O)NCCCn2ccnc2)c1N [2-amino-5-chloro-3-methyl-N--[3-(1H--imidazol-1-yl)propyl]benzamide dihydrochloride salt] | 80 | 125
O=C1c2ccccc2C(=O)N1CCCCCCn1ccnc1 [2-[6-(1H--imidazol-1-yl)hexyl]-1H--isoindole-1,3(2H)--dione] | – | 110
O=C(NCCCn1ccnc1)c1ccc2ccccc2c1 [N--[3-(1H--imidazol-1-yl)propyl]-2-naphthalenecarboxamide] | 97 | 127
CC(CCN1C(=O)c2ccccc2C1=O)n1ccnc1 (stereo not shown) [2-[3-(1H--imidazol-1-yl)butyl]-1H--isoindole-1,3(2H)--dione] | – | 124
O=C(NCCCn1ccnc1)c1ccccc1 [N-[3-(1H-Imidazol-1-yl)propyl]benzamide] | 96.3 | 128
